The results in this text go back to patent US12084471B2, “Amino acid derivative of glucosamine stimulating extracellular matrix synthesis and pharmaceutical composition comprising the same” (CARTILAGO S.R.L., priority 2018, dated 2024).

Assay [1] has as its system HAS-2. The assay is described as follows: expression of hyaluronic acid synthetase (HAS-2) and production of hyaluronic acid. In kind it is cell-based.
The test system of assay [2] is osteoarthritic knees of rabbits. In words: in vivo model of OA in rabbit, intra-articular administration. The note with it: rabbit OA knee.
Assay [3] has as its target T1, IKKβ (Homo sapiens, UniProt O14920).
T1 sequence (O14920 1-756): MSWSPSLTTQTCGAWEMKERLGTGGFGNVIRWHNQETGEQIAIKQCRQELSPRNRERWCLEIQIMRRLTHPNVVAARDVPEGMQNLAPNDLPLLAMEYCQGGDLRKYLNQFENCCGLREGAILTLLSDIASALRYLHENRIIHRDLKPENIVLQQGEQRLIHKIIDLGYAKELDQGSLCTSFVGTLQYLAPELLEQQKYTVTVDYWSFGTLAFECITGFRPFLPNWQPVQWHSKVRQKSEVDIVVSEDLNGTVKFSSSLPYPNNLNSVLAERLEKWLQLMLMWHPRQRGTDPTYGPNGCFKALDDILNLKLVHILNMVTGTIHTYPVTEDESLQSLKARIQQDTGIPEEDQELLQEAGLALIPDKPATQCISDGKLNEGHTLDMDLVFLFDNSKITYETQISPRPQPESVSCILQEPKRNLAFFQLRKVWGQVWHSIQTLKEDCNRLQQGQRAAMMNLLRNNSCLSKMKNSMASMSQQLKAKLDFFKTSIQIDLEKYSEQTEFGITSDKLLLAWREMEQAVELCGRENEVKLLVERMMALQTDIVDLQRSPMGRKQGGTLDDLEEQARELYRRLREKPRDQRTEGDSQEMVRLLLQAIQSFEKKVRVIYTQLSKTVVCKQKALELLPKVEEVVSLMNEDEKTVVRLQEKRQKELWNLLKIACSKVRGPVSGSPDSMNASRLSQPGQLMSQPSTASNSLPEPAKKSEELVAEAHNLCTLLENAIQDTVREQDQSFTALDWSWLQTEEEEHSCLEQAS
In words: kinase activity of IKKβ. In kind it is cell-based. The procedure: (§1) To clarify the molecular mechanism, glucosamine-derived N-acetyl-phenylalanine has been studied in vitro, using primary cultured chondrocytes. The chondrocytes were stimulated with IL-1 in order to study the inflammatory pathway, controlled by the Activator Protein (AP)-1. […] The efficacy of interfering with the inflammatory pathway controlled by the transcription factor Nuclear Factor-κB (NF-κB) was then analyzed, which in turn is controlled by the IKK complex consisting of two IKKα and IKKβ kinases.

The subject of assay [4] is c-jun. In words: activation of c-jun (AP-1 component) in primary cultured chondrocytes stimulated with IL-1. In kind it is cell-based. The procedure: as §1
For assay [5], the target named is T2, IKKα (Homo sapiens, UniProt O15111).
T2 sequence (O15111 1-745): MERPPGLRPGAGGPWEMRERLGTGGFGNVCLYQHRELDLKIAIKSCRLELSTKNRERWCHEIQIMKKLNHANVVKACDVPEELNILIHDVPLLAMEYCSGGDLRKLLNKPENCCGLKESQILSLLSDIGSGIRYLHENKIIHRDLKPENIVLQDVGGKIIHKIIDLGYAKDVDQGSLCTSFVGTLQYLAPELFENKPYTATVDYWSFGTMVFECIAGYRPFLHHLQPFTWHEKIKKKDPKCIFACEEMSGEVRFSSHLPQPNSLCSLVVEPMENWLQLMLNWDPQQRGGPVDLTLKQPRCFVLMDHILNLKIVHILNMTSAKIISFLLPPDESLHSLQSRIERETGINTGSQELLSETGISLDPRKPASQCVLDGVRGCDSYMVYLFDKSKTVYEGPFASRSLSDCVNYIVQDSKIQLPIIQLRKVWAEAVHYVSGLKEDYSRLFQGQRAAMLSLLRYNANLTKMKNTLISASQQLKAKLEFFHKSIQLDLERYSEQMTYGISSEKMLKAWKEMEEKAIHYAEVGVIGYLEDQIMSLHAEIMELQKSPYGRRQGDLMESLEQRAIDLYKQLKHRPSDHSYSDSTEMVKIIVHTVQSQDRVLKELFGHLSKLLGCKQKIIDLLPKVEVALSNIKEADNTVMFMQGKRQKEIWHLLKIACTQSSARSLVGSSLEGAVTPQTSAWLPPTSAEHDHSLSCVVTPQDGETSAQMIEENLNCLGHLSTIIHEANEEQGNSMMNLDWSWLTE
In words: kinase activity of IKKα. It is filed as cell-based. The procedure: as §1

Assay [6] relates to p38. In words: p38 phosphorylation in primary cultured chondrocytes stimulated with IL-1. In kind it is cell-based. The procedure:
as §1

Assay [7] deals with human primary chondrocytes. The assay is described as follows: human primary chondrocytes cultured in three dimensions as spheroids, ECM synthesis. In kind it is cell-based. The settings on record: human chondrocyte spheroids, compound alone. The procedure:
Finally, in order to understand which intracellular pathways are activated by said N-acetyl-phenylalanine derived from glucosamine to stimulate ECM synthesis, further in vitro studies in human primary chondrocytes were conducted. In order to simulate physiological conditions, the culture of human chondrocytes was carried out in three dimensions, cultivating the cells in the form of spheroids.

In assay [8] the test system is osteoarthritic knees of mice. In words: in vivo model of OA in mice, intra-articular administration. The settings on record: mice OA knee.
Assay [9] addresses T2, IKKα. The assay is described as follows: translocation of IKKα kinase in the nucleus, primary cultured chondrocytes. It is filed as cell-based. The procedure:
as §1

In assay [10] the test system is fibroblasts stimulated with UVB. The assay is described as follows: fibroblasts stimulated with UVB. It is filed as cell-based. From the text:
This discovery promptly aroused in the inventors an interest in the ability of this class of products to intervene in the remodeling of the cutaneous ECM, in which the relative alteration of turnover leads to atrophy of the skin, with consequent aging of the skin and in some cases even to onset of skin cancer processes.

Assay [11] relates to JNK. The assay is described as follows: JNK phosphorylation in primary cultured chondrocytes stimulated with IL-1. It is filed as cell-based. The procedure: as §1

Regarding `CC(=O)N[C@H](Cc1ccccc1)C(=O)NC1C(O)OC(CO)C(O)C1O` (stereo partly drawn) [N-acetyl-phenylalanine derivative of glucosamine], in [1], the “expression of the enzyme synthetase of hyaluronic acid (HAS-2)” value is given as “stimulate the expression” and the “production of hyaluronic acid (HA)” value is on record as “stimulate”. Besides, in [2], the cartilage structure result was “structure very similar to the healthy one” and the “synthesis of new ECM” value is “stimulated the synthesis of new ECM”. Also, in assay [3], the “kinase activity of IKKβ” value is “not IKKβ”. Also, the activation of c-jun result in assay [4] is “influencing the activation of c-jun”. In [5], the “kinase activity of IKKα” value is on record as “selectively inhibiting the kinase activity of IKKα”. Further, in assay [6], the “phosphorylation of p38” value is “inhibiting the phosphorylation”. In addition, the “synthesis of type II collagen” value in assay [7] was “stimulated the synthesis of type II collagen”. Moreover, in [8], the cartilage structure result is recorded as “structure very similar to the healthy one” and the “synthesis of new ECM” value is recorded as “stimulated the synthesis of new ECM”. Also, the “translocation in the nucleus of the IKKα kinase” value in assay [9] is listed as “inhibited the translocation in the nucleus”. For the same compound, the “synthesis of type I collagen” value in [10] (UVB-stimulated fibroblasts, synthesis blocked by UVB treatment) is “restore the synthesis of type I collagen”. In assay [10] (compound added to culture medium of UVB-stimulated fibroblasts), the “inflammatory pathways stimulated by UVB” value is recorded as “able to counteract the inflammatory pathways”. Besides, the “phosphorylation of JNK” value in assay [11] is given as “inhibiting the phosphorylation”.
